System: APTK-OVA tumors
Assay: Adoptive transfer of UA-conditioned OT-1 T cells into Rag1−/− mice
Format: in vivo, mouse
Method: For adoptive cell transfer, purified splenic T cell from OT1 mice were isolated and activated using αCD3/αCD28 stimulation beads for 48 h. After magnetic bead removal, 1×10^6 T of activated T cell were intravenously injected into Rag1−/− recipients. To study survival of transferred T cells, stimulated OT-1 T cells were injected into mice without tumors. Subsequently, after 7 days, spleens were isolated and splenocytes were stained for the CD8+ subsets as described below. To understand antitumor immunity conferred by transferred OT-1 lymphocytes, cells were injected into mice carrying APTK-OVA tumors 10 days after subcutaneous organoid transplantation. Tumor growth was assessed as described above. Mice were kept under regular chow food for the T cell adoptive transfer experiment and sacrificed collectively when maximum tumor diameter extended 1.5 cm.
Tumors were minced and digested with Tumor & Tissue Dissociation Reagent (BD Horizon) for 30 min. The remaining organ pieces were filtered through a 70 µm cell strainer. Cells were then washed with PBS 1% BSA and 2 mM EDTA. Immune cells were enriched on a 30%/40%/75% Percoll gradient after a 1700 rpm 17 min centrifugation. Then, tumor immune filtrates or activated T cells were stained with Fixable Viability Dye-eF780 (65-0865-14; eBioscience), αCD45-FITC (30-F11; 11-0451-85; eBioscience), αCD11b-BV650 (M1/70; 56340; BD) α-CD11c-BV785 (HL3; 563735; BD), aLy6G-BV605 (53-6.7; 563005; BD), aLy6C-AF700 (HK1.4; 128024; Biolegend), aF4/80-PE (BM8; 12-4801-82, eBioscience), aPD-L1-PECy7 (MIH5; 25-5982-80, eBioscience); or with Fixable Viability Dye-eF780 (ebioscience), αCD45-BV786 (30-F11; 564225; BD), αCD4-BUV496 (GK1.5; 564667; BD), αCD8-BV605 (100744; Biolegend), aPD1-APC (J43; 17-9985-82; eBioscience), aTIM-3-PECy7 (RMT3-23; 119715; Biolegend), aCTLA4-PE (UC10-4B9; 106305; Biolegend) and aLag3-BV421 (C9B7W; 125221, Biolegend); or with Fixable Viability Dye-eF780 (eBioscience), αCD4-FITC (H129.19; 553650; BD), αCD8-APC (53-6.7; 17-0081-83; eBioscience), αCD44-AF400 (IM7; 103026; Biolegend), αCD62L-BV785 (MEL-14; 104440; Biolegend), αSca-1-PerCP-Cy5.5 (D7; 45-5981-82; eBioscience), αCD95-PE (Jo2; 554258; BD); or with Fixable Viability Dye-eF780 (eBioscience), αCD8-BV650 (53-6.7; 563234; BD), αCD4-BUV496 (GK1.5; 564667; BD), αCD127-APC (A7R34; 17-1271-82; eBioscience), αCD95-FITC (SA367H8;152605; Biolegend), αCD44-AF400 (IM7; 103026; Biolegend), αCD62L-BV785 (MEL-14; 104440; Biolegend), αSca-1-PerCP-Cy5.5 (D7; 45-5981-82; eBioscience) followed by intracellular staining of aTCF1-PE (S33-966; 564217; BD), or PGC-1α (sc-518025; D-5; santa cruz), or aCyclinD1 (MA5-28534, DCS-6; Invitrogen) with transcription factor buffer set kit (BD Biosciences). To study cytokine expression, tumor immune infiltrates were stimulated ex vivo with 20 ng/mL PMA and […] Ionomycin (Sigma) for 3 h in T cell activation medium with Brefeldin A (Biolegend). For T cell in vitro activation experiments over several days, Brefeldin A was added to the medium for the last 3 hours. Cells were then stained with Fixable Viability Dye-eF780 (eBioscience), αCD8-PeCy7 (53.6-7; 100722; Biolegend), αCD4-AF700 (GK1.5; 100429; Biolegend), and intracellular staining for cytokine assessment was performed with BD Cytofix/Cytoperm (BD) with 20 min fixation and overnight incubation with αGranzyme B-FITC (GB11; 515403; Biolegend), αIFNγ-PerCPCy5.5 (XMG1.2; 45-7311-82; eBioscience) and αTNFa-BV711 (MP6-XT22; 563944; BD). For flow cytometric analysis of mitochondria and lysosomes 500 μl of Mitotracker Red (200 nM; ThermoFisher) or Lysotracker Red DND-99 (75 nM; ThermoFisher) were applied followed by surface staining. To study changes in mitochondrial membrane potential, Mitoprobe TMRM kit (ThermoFisher) was used according to the manufacturer's instructions. Cell proliferation was assessed by CellTrace Violet (Invitrogen, C34557) at a concentration of […] according to manufacturer's instructions. […]

Compound: O=c1oc2cc(O)ccc2c2ccc(O)cc12 [UA, Urolithin A]
- CD62L expression in CD8+ TIL (UA-T cell transfer): remained unchanged
- expression of CD44 in CD8+ TIL (UA-T cell transfer): lower expression
- number of TCF1HiCD8+ tumor infiltrating T cells (UA-T cell transfer): higher number
- suppression of APTK-OVA tumors (UA-conditioned vs control OT-I T cells): more substantial tumor suppression
- Tim3HiPD1Hi terminally exhausted CD8+ T cells in the TME (UA-pretreated T cells): less

Reference: patent US20240139149A1, “THERAPEUTIC USES OF UROLITHIN DERIVATIVES” (Vandria SA, priority 2022, published 2024)
